The values below come from PMC10174618, “Monoterpenoid aryl hydrocarbon receptor allosteric antagonists protect against ultraviolet skin damage in female mice” (Nature Communications, 2023).

What all share (experiment): biochemical
Common to all, as to design: KINOMEscan scanMAX active site-directed competition binding assay, percent of control, 468 kinases
What all share (settings): competition binding, percent of control

One assay deals with T1, NDR1 (Homo sapiens, UniProt Q15208).
T1 construct: gene STK38
In a few lines: (§1)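 KINOMEscan active site-directed competition binding assay against 468 human kinases with 100 μM S-carvone. Binding expressed as % of control, with 35% of control as the inhibition threshold.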

A further assay has as its target TNIK (Homo sapiens, UniProt Q9UKE5). The gist of the method:
as §1

The target of another assay is EGFR(T790M) (Homo sapiens, UniProt P00533, T790M). The gist of the method:
as §1

The target in a further assay is T2, JNK3 (Homo sapiens, UniProt P53779).
T2 construct: gene MAPK10
The gist of the method: as §1

The target of another assay is IRAK3 (Homo sapiens, UniProt Q9Y616). The gist of the method: as §1
In the next assay the target is RIOK3 (Homo sapiens, UniProt O14730). The gist of the method: as §1
A further assay addresses T3, ERK4 (Homo sapiens, UniProt P31152).
T3 construct: gene MAPK4
The gist of the method:
as §1

The target of a further assay is FLT3(R834Q) (Homo sapiens, UniProt P36888, R834Q). In a few lines: as §1
The target of another assay is NEK9 (Homo sapiens, UniProt Q8TD19). In a few lines:
as §1

The next assay deals with KIT (Homo sapiens, UniProt P10721). In a few lines: as §1
The next assay deals with FES (Homo sapiens, UniProt P07332). In a few lines: as §1
Another assay has as its target MAP4K3 (Homo sapiens, UniProt Q8IVH8). In a few lines: as §1
The target of assay [1] is T4, ABL1(F317I)-phosphorylated (Homo sapiens, UniProt P00519, F317I).
T4 construct: phosphorylated
In a few lines:
as §1

The next assay deals with CDKL1 (Homo sapiens, UniProt Q00532). In a few lines: as §1
In the next assay the target is HIPK4 (Homo sapiens, UniProt Q8NE63). The gist of the method: as §1
Another assay deals with T5, DCAMKL2 (Homo sapiens, UniProt Q8N568).
T5 construct: gene DCLK2
The gist of the method:
as §1

A further assay has as its target T6, ICK (Homo sapiens, UniProt Q9UPZ9).
T6 construct: gene CILK1
The gist of the method:
as §1

A further assay has as its target FLT3(ITD,D835V) (Homo sapiens, UniProt P36888, D835V/ITD). The gist of the method: as §1
The next assay has as its target SRC (Homo sapiens, UniProt P12931). The gist of the method:
as §1

In the next assay the target is CLK1 (Homo sapiens, UniProt P49759). In a few lines:
as §1

For another assay, the target named is TIE1 (Homo sapiens, UniProt P35590). The gist of the method:
as §1

Another assay has as its target GRK1 (Homo sapiens, UniProt Q15835). In a few lines: as §1

Chain of RIOK3 (O14730 whole entry): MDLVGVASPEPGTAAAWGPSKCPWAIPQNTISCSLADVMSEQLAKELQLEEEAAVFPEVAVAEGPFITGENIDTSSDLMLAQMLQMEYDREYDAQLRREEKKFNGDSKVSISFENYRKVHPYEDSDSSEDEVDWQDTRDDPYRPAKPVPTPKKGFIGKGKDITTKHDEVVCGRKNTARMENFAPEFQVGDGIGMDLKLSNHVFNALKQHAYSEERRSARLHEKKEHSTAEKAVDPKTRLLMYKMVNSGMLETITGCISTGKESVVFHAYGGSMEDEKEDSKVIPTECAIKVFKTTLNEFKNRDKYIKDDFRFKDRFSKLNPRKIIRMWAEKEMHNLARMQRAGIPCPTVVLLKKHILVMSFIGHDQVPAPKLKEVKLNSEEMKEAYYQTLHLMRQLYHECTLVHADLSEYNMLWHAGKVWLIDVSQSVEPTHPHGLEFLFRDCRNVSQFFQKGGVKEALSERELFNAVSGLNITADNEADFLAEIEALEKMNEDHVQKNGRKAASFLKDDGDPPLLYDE
Chain of SRC (P12931 whole entry): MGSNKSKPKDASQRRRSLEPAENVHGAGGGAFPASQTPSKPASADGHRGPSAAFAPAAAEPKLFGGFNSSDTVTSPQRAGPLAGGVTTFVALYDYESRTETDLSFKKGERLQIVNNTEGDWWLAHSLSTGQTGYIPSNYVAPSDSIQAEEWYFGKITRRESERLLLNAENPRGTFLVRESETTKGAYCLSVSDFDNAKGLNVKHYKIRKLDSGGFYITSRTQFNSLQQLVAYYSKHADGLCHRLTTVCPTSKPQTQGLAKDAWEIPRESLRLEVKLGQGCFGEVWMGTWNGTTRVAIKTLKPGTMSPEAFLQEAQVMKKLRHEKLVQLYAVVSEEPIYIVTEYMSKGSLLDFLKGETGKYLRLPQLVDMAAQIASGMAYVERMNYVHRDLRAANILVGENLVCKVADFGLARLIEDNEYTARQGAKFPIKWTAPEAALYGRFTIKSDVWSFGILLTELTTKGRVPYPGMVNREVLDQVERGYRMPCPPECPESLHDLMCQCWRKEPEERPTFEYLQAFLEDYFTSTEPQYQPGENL
Chain of TNIK (Q9UKE5 whole entry): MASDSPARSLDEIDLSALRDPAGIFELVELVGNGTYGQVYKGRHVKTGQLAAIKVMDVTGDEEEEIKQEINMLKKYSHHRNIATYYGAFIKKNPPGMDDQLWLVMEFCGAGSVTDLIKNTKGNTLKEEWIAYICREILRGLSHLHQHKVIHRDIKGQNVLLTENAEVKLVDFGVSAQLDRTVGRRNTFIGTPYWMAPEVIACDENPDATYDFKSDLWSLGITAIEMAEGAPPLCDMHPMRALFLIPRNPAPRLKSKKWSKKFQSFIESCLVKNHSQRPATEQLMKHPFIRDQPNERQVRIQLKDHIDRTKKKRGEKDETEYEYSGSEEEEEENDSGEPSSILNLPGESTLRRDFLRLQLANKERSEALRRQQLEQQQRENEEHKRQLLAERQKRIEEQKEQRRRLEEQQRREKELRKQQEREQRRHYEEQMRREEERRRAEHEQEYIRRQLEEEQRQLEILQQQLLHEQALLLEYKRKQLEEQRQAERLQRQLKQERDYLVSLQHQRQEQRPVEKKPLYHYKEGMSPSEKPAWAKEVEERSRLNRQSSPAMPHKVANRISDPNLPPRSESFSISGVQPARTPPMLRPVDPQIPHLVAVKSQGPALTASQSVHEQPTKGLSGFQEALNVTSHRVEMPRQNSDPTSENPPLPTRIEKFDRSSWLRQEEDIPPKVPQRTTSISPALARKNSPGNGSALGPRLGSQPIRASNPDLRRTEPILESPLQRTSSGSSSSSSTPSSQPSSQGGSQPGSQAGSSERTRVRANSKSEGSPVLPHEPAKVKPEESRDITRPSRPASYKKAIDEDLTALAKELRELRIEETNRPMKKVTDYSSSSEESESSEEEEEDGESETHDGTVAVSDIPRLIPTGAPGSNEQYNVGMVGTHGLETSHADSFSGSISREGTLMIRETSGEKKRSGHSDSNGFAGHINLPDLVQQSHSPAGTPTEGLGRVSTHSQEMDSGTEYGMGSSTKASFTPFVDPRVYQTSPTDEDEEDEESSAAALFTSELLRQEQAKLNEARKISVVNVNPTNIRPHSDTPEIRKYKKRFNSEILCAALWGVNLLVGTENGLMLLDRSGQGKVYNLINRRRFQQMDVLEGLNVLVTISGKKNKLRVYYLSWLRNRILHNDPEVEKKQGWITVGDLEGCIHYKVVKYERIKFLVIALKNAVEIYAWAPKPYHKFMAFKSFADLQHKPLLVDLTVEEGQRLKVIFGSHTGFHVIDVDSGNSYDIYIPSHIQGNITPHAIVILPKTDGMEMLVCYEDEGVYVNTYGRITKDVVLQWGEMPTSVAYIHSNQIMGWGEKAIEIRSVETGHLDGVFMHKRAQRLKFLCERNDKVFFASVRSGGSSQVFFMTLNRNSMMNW
Chain of HIPK4 (Q8NE63 whole entry): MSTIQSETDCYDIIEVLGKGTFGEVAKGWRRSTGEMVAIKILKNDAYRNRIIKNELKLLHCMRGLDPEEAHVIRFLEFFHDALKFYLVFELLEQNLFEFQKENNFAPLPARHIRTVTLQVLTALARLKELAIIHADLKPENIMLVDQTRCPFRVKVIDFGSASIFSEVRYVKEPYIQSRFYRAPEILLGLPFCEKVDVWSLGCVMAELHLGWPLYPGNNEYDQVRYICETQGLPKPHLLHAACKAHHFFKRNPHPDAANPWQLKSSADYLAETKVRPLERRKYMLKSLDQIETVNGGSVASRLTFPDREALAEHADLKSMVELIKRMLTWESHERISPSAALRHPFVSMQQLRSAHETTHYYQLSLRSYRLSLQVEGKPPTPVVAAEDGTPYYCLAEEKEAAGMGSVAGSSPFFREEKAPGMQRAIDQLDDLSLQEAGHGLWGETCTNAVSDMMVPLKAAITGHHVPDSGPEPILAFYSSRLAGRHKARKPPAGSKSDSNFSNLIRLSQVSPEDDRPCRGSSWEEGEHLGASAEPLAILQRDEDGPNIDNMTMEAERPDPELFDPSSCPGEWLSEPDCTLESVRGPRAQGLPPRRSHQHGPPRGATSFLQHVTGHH
Chain of CDKL1 (Q00532 whole entry): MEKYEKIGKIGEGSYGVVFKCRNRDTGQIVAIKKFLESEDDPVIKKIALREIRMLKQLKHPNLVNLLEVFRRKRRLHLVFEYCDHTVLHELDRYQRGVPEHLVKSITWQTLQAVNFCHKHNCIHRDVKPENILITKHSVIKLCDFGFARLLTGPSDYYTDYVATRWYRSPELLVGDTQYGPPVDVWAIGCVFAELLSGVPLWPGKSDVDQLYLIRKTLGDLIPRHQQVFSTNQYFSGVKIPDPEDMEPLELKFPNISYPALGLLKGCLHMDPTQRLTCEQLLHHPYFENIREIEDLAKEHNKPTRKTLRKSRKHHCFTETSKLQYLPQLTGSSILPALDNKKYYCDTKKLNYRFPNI
T4 sequence (P00519 whole entry F317I): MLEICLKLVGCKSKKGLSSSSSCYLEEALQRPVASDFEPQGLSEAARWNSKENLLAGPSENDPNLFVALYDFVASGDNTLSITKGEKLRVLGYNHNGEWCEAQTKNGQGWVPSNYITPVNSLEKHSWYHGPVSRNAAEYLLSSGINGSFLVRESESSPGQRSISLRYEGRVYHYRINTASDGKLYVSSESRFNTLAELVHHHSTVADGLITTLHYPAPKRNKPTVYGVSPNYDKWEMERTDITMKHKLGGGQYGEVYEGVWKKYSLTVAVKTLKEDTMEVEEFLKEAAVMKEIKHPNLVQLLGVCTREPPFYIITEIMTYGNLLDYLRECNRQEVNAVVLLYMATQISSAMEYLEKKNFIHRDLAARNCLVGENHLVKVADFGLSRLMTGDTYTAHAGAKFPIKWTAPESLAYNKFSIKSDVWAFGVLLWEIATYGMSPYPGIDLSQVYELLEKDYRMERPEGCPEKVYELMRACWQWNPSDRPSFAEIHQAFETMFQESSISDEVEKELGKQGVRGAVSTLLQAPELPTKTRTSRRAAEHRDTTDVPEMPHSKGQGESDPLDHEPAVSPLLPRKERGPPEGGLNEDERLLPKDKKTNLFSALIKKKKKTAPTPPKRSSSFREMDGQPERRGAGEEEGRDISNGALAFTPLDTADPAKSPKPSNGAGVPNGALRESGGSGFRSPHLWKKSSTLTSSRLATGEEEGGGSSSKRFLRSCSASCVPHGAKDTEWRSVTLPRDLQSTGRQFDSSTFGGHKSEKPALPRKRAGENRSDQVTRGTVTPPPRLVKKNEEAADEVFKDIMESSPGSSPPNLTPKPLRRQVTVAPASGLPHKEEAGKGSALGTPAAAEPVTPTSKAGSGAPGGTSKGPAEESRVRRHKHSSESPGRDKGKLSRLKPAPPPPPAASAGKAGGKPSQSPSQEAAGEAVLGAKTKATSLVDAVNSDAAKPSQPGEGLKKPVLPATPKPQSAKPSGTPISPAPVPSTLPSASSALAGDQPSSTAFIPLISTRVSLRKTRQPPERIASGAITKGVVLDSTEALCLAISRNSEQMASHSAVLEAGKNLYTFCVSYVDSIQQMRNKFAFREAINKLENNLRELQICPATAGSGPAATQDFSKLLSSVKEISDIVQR
T2 sequence (P53779 whole entry): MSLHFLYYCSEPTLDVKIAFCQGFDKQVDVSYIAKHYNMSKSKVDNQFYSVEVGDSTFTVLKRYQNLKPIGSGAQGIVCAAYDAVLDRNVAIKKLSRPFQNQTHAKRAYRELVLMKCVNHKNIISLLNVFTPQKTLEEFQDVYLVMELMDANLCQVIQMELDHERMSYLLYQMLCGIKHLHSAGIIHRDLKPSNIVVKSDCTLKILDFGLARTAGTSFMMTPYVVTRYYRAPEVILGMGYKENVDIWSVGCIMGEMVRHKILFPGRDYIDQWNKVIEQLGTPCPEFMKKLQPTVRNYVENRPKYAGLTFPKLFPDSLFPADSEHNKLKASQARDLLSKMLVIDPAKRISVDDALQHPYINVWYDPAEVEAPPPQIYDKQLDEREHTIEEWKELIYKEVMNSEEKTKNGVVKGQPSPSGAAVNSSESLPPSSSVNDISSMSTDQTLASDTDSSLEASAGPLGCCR

For the compound `C=C(C)[C@H]1CC=C(C)C(=O)C1` [S-carvone], the remaining binding at 100 µM on NDR1 was 77%; on TNIK, 84%; at EGFR(T790M), 64%; on JNK3, 88%; on IRAK3, 100%; at RIOK3, 89%. Moreover, the remaining binding at 100 µM at ERK4 is 89%; at FLT3(R834Q) it was 83%; at NEK9, 80%; on KIT, 82%; at FES, 69%; on MAP4K3, 90%. Besides, the remaining binding at 100 µM was 97% in assay [1]; 70% on CDKL1; 66% at HIPK4; 87% at DCAMKL2; 97% at ICK; 85% on FLT3(ITD,D835V). The remaining binding at 100 µM was 77% on SRC, 94% on CLK1, 89% at TIE1 and 74% on GRK1.
